According to patent US20060122153A1, “Antineoplastic ether lipid compounds with modifications at the sn-2 carbon” (priority 2003, published 2006):

Experiments:
whole human blood = assay: Hemolysis assay with whole human blood; conditions: whole human blood; for H10: concentration producing 10% hemolysis; for H50: concentration producing 50% hemolysis
Description: Venous blood was collected in 10 mL Vacutainer tubes containing EDTA using a 21G needle or larger.
Stock solutions of 20 mM test sample in phosphate buffered saline (PBS) were prepared as follows:
Then 270 uL of whole blood was aliquotted in duplicate mini test tubes using positive displacement pipet. Next, 30 uL of each working stock solution, in duplicate, was added to the whole blood. Next, 30 uL of PBS was added for background control. The samples were capped or sealed with Parafilm and gently mixed. The blood was incubated at 37° C. in gentle rotating water bath for 30 minutes. Final concentration of test sample was 10% of working stock solution.
Total hemolysis samples of 1,% and 10% whole blood samples in deionized water were prepared as follows:
The samples were freeze thawed 3× in liquid nitrogen then wafer bath. The samples were then centrifuged 10 minutes at 1500 RPM. Next, 100 uL of supernatant was transferred to a cuvette and 1 mL deionized water was added. The absorbance was read at 550 nm vs. water blank.
H10 and H50 were calculated by graphing Percent Total Hemolysis vs. Test Sample Concentration. The Percent Total Henolysis=(average o.d of test sample)/(average o.d. of total hemolysis sample)×100

UO-31 = assay: NCI growth inhibition screen, renal panel; assay type: cell-based, human; parameters: key to Performance as compared to ET-18-O—CH3: = means equivalent activity; + means that it appears to be significantly better (i.e., by ˜2x); < means it appears to be less active than ET18OCH3 (˜2x); a combination like =/+ or </+ means that activity is dependent upon the isomer; a combination like =/+ or </+ means that activity is dependent upon the isomer; conditions: for Performance as compared to ET-18-O—CH3: UO-31, Renal, from GI50s; for activity compared to ET-18-OCH3 (in words): UO-31 cell line, NCI screen
Description: (§1) Candidates deemed suitable for in vivo testing were then synthesized in large scale quantities and some of this material was sent to the NCI's Developmental Therapeutics Program for a battery of growth inhibitory studies against various human tumor cell lines (60 cell lines, 9 different panels). The remainder of the material was used to assess in vivo efficacy using murine tumor models. Additionally, studies were conducted on the lead candidates to discern mechanism of action with particular emphasis on these agents apoptotic ability as measured by caspase 3 activity. The details (materials and methods) for these various assays are described further in the following discussion.
(§2) Ten compounds were also sent to NCI's Drug Discovery Program for screening against numerous human tumor cell lines (9 panels total: renal ovarian, colon, CNS, non-small cell lung, leukemia, breast, melanoma, and prostate). The data are shown in FIGS. 2a-i which also include data regarding D- and L-ET-18-OCH3 (listed as L-EL and D-EL in the figures). Upon examining the data, one is struck by how 1R and 1a′S standout in comparison to the other compounds, especially for the renal, ovarian, colon, and CNS panels.

CCRF-CEM = assay: NCI growth inhibition screen, leukemia panel; assay type: cell-based, human; parameters: key: = means equivalent activity; + means that it appears to be significantly better (i.e., by ˜2x); < means it appears to be less active than ET18OCH3 (˜2x); a combination like =/+ or </+ means that activity is dependent upon the isomer; a combination like =/+ or </+ means that activity is dependent upon the isomer; conditions: from GI50s
Description: as §1, §2

HL-60 = assay: NCI growth inhibition screen, leukemia panel; assay type: cell-based, human; parameters: key: = means equivalent activity; + means that it appears to be significantly better (i.e., by ˜2x); < means it appears to be less active than ET18OCH3 (˜2x); a combination like =/+ or </+ means that activity is dependent upon the isomer; a combination like =/+ or </+ means that activity is dependent upon the isomer; conditions: HL-60, Leukemia; from GI50s
Description: as §1, §2

MOLT-4 = assay: NCI growth inhibition screen, leukemia panel; assay type: cell-based, human; parameters: key: = means equivalent activity; + means that it appears to be significantly better (i.e., by ˜2x); < means it appears to be less active than ET18OCH3 (˜2x); a combination like =/+ or </+ means that activity is dependent upon the isomer; a combination like =/+ or </+ means that activity is dependent upon the isomer; conditions: MOLT-4, Leukemia; from GI50s
Description: as §1, §2

LOX IMVI = assay: NCI growth inhibition screen, melanoma panel; assay type: cell-based, human; parameters: key: = means equivalent activity; + means that it appears to be significantly better (i.e., by ˜2x); < means it appears to be less active than ET18OCH3 (˜2x); a combination like =/+ or </+ means that activity is dependent upon the isomer; a combination like =/+ or </+ means that activity is dependent upon the isomer; conditions: from GI50s
Description: as §1, §2

M14 = assay: NCI growth inhibition screen, melanoma panel; assay type: cell-based, human; parameters: key: = means equivalent activity; + means that it appears to be significantly better (i.e., by ˜2x); < means it appears to be less active than ET18OCH3 (˜2x); a combination like =/+ or </+ means that activity is dependent upon the isomer; a combination like =/+ or </+ means that activity is dependent upon the isomer; conditions: from GI50s
Description: as §1, §2

SK-MEL-28 = assay: NCI growth inhibition screen, melanoma panel; assay type: cell-based, human; parameters: key: = means equivalent activity; + means that it appears to be significantly better (i.e., by ˜2x); < means it appears to be less active than ET18OCH3 (˜2x); a combination like =/+ or </+ means that activity is dependent upon the isomer; a combination like =/+ or </+ means that activity is dependent upon the isomer; conditions: SK-MEL-28, Melanoma; from GI50s
Description: as §1, §2

SK-MEL-5 = assay: NCI growth inhibition screen, melanoma panel; assay type: cell-based, human; parameters: key: = means equivalent activity; + means that it appears to be significantly better (i.e., by ˜2x); < means it appears to be less active than ET18OCH3 (˜2x); a combination like =/+ or </+ means that activity is dependent upon the isomer; a combination like =/+ or </+ means that activity is dependent upon the isomer; conditions: SK-MEL-5, Melanoma; from GI50s
Description: as §1, §2

UACC-257 = assay: NCI growth inhibition screen, melanoma panel; assay type: cell-based, human; parameters: key: = means equivalent activity; + means that it appears to be significantly better (i.e., by ˜2x); < means it appears to be less active than ET18OCH3 (˜2x); a combination like =/+ or </+ means that activity is dependent upon the isomer; a combination like =/+ or </+ means that activity is dependent upon the isomer; conditions: UACC-257, Melanoma; from GI50s
Description: as §1, §2

UACC62 = assay: NCI growth inhibition screen, melanoma panel; assay type: cell-based, human; parameters: key: = means equivalent activity; + means that it appears to be significantly better (i.e., by ˜2x); < means it appears to be less active than ET18OCH3 (˜2x); a combination like =/+ or </+ means that activity is dependent upon the isomer; a combination like =/+ or </+ means that activity is dependent upon the isomer; conditions: from GI50s
Description: as §1, §2

Q: What does the source list for `CCCCCCCCCCCCCCCCCCOC[C@@H](COP(=O)([O-])OCC[N+](C)(C)C)OS(C)(=O)=O` [1a′S]?
A: H10 (whole human blood): 800 µM; H50 (whole human blood): >2000 µM; Performance as compared to ET-18-O—CH3 (UO-31): 64; activity compared to ET-18-OCH3 (in words) (UO-31): more active; Performance as compared to ET-18-O—CH3 (CCRF-CEM): 0; Performance as compared to ET-18-O—CH3 (HL-60): 0; Performance as compared to ET-18-O—CH3 (MOLT-4): 0; Performance as compared to ET-18-O—CH3 (LOX IMVI): 0; Performance as compared to ET-18-O—CH3 (M14): 0; Performance as compared to ET-18-O—CH3 (SK-MEL-28): </=; Performance as compared to ET-18-O—CH3 (SK-MEL-5): 0; Performance as compared to ET-18-O—CH3 (UACC-257): 0; Performance as compared to ET-18-O—CH3 (UACC62): 64

Q: With `CCCCCCCCCCCCCCCCCCOCC(COP(=O)([O-])OCC[N+](C)(C)C)OS(C)(=O)=O` (centres unmarked) [Compound 1aR] as the molecule, how does the H10 (whole human blood) read?
A: The H10 was 1000 µM.

Q: What about the H50 (whole human blood) of the same molecule?
A: The H50 was greater than 2000 µM.

Q: And the “Performance as compared to ET-18-O—CH3” value (UO-31)?
A: Its value is “+”.

Q: And the “activity compared to ET-18-OCH3 (in words)” value (UO-31)?
A: Its value is “more active”.

Q: And the “Performance as compared to ET-18-O—CH3” value (CCRF-CEM)?
A: Its value is “=”.

Q: And the “Performance as compared to ET-18-O—CH3” value (HL-60)?
A: The value was “=”.

Q: And the “Performance as compared to ET-18-O—CH3” value (MOLT-4)?
A: Its value is “=”.

Q: What about the “Performance as compared to ET-18-O—CH3” value (LOX IMVI) of the same molecule?
A: Its value is “=”.

Q: And the “Performance as compared to ET-18-O—CH3” value (M14)?
A: Its value is “=”.

Q: And the “Performance as compared to ET-18-O—CH3” value (SK-MEL-28)?
A: Its value is “=/+”.

Q: And the “Performance as compared to ET-18-O—CH3” value (SK-MEL-5)?
A: Its value is “=”.

Q: What about the “Performance as compared to ET-18-O—CH3” value (UACC-257) of the same molecule?
A: The value was “=”.

Q: And the “Performance as compared to ET-18-O—CH3” value (UACC62)?
A: Its value is “+”.
